Reference: ChEMBL document CHEMBL3885861, “Open TG-GATES”

Species: Rattus norvegicus
Test: Open TG-GATES - Regimen: Single
Assay type: toxicity, organism-based, Sprague-Dawley
Design: regimen Single, gender Male, age 6 weeks
Conditions: in vivo, po, 200 mg/kg, route gavage, dose level Middle; for APTT / Bas / Eos / Fbg / Hb / Ht / Lym / MCH / MCHC / MCV / Mono / Neu / PT / Plat / RBC / Ret / WBC: tissue Blood; for KIDNEY_L / KIDNEY_R / KIDNEY_TOTAL: tissue Kidney; for LIVER: tissue Liver; for A/G / ALP / ALT / AST / BUN / CRE / Ca / Cl / DBIL / GLC / IP / K / LDH / Na / PL / RALB / TBIL / TC / TG / TP / gamma-GTP: tissue Plasma

`CCOC(=O)[C@H](CCc1ccccc1)N[C@@H](C)C(=O)N1CCC[C@H]1C(=O)O` was tested, and the TERMINAL_BW (3 h) was 221.1 g, the APTT (3 h) was 15.6 s and the Bas (3 h) was 0%. It also gave an Eos (3 h) of 1%, a Fbg (3 h) of 207 mg/dL and a Hb (3 h) of 13.1 g/dL. It also gave a Ht (3 h) of 39.7%, a Lym (3 h) of 81.6% and an MCH (3 h) of 22.2 pg. For the same compound, the MCHC (3 h) was 33.1%, the MCV (3 h) was 67.1 fL and the Mono (3 h) was 5%. The Neu (3 h) was 12.4%, the PT (3 h) was 12 s and the Plat (3 h) was 117.9 x10_4/uL. The RBC (3 h) was 591.2 x10_4/ul, the Ret (3 h) was 9.1% and the WBC (3 h) was 93.8 x10_2/uL. It also gave a KIDNEY_L (3 h) of 1 g, a KIDNEY_R (3 h) of 1 g and a KIDNEY_TOTAL (3 h) of 2.1 g. The LIVER (3 h) was 10.4 g, the A/G (3 h) was 1.8 and the ALP (3 h) was 823.4 IU/L. It also gave an ALT (3 h) of 45.2 IU/L, an AST (3 h) of 67 IU/L and a BUN (3 h) of 21.2 mg/dL. It also gave a CRE (3 h) of 0.5 mg/dL, a Ca (3 h) of 10.8 mg/dL and a Cl (3 h) of 107.2 meq/L. The DBIL (3 h) was 0.01 mg/dL, the GLC (3 h) was 205.4 mg/dL and the IP (3 h) was 9.1 mg/dL. The K (3 h) was 5.5 meq/L, the LDH (3 h) was 101.8 IU/L and the Na (3 h) was 139 meq/L. It also gave a PL (3 h) of 129.8 mg/dL, an RALB (3 h) of 3.4 g/dL and a TBIL (3 h) of 0.3 mg/dL. The TC (3 h) was 72.2 mg/dL, the TG (3 h) was 82 mg/dL and the TP (3 h) was 5.3 g/dL. For the same compound, the gamma-GTP (3 h) was 1.6 IU/L, the TERMINAL_BW (6 h) was 215 g and the APTT (6 h) was 16.6 s. It also gave a Bas (6 h) of 0%, an Eos (6 h) of 1% and a Fbg (6 h) of 208.6 mg/dL. For the same compound, the Hb (6 h) was 13 g/dL, the Ht (6 h) was 39.7% and the Lym (6 h) was 75%. It also gave an MCH (6 h) of 21.2 pg, an MCHC (6 h) of 32.7% and an MCV (6 h) of 64.7 fL. For the same compound, the Mono (6 h) was 9.6%, the Neu (6 h) was 14.4% and the PT (6 h) was 11.9 s. The Plat (6 h) was 109.6 x10_4/uL, the RBC (6 h) was 615.4 x10_4/ul and the Ret (6 h) was 8.9%. For the same compound, the WBC (6 h) was 113.1 x10_2/uL, the KIDNEY_L (6 h) was 1 g and the KIDNEY_R (6 h) was 1 g. For the same compound, the KIDNEY_TOTAL (6 h) was 1.9 g, the LIVER (6 h) was 9.8 g and the A/G (6 h) was 2.1. The ALP (6 h) was 770.4 IU/L, the ALT (6 h) was 43.2 IU/L and the AST (6 h) was 63.2 IU/L. It also gave a BUN (6 h) of 22 mg/dL, a CRE (6 h) of 0.5 mg/dL and a Ca (6 h) of 11 mg/dL. For the same compound, the Cl (6 h) was 105.6 meq/L, the DBIL (6 h) was 0.022 mg/dL and the GLC (6 h) was 195.4 mg/dL. It also gave an IP (6 h) of 10.4 mg/dL, a K (6 h) of 5.1 meq/L and an LDH (6 h) of 91.6 IU/L. For the same compound, the Na (6 h) was 139 meq/L, the PL (6 h) was 144.6 mg/dL and the RALB (6 h) was 3.6 g/dL. For the same compound, the TBIL (6 h) was 0.5 mg/dL, the TC (6 h) was 79.2 mg/dL and the TG (6 h) was 53.8 mg/dL. For the same compound, the TP (6 h) was 5.3 g/dL, the gamma-GTP (6 h) was 1.2 IU/L and the TERMINAL_BW (9 h) was 214.6 g. The APTT (9 h) was 15.7 s, the Bas (9 h) was 0% and the Eos (9 h) was 1.2%. It also gave a Fbg (9 h) of 207.2 mg/dL, a Hb (9 h) of 12.8 g/dL and a Ht (9 h) of 39.2%. For the same compound, the Lym (9 h) was 71.6%, the MCH (9 h) was 21.4 pg and the MCHC (9 h) was 32.6%. It also gave an MCV (9 h) of 65.4 fL, a Mono (9 h) of 10.2% and a Neu (9 h) of 17%. For the same compound, the PT (9 h) was 12.1 s, the Plat (9 h) was 108.6 x10_4/uL and the RBC (9 h) was 599.4 x10_4/ul. The Ret (9 h) was 8.8%, the WBC (9 h) was 88.4 x10_2/uL and the KIDNEY_L (9 h) was 1.1 g. It also gave a KIDNEY_R (9 h) of 1 g, a KIDNEY_TOTAL (9 h) of 2.1 g and an LIVER (9 h) of 8.8 g. For the same compound, the A/G (9 h) was 2.1, the ALP (9 h) was 931.6 IU/L and the ALT (9 h) was 36.2 IU/L. It also gave an AST (9 h) of 65.8 IU/L, a BUN (9 h) of 25.8 mg/dL and a CRE (9 h) of 0.4 mg/dL. It also gave a Ca (9 h) of 10.8 mg/dL, a Cl (9 h) of 108 meq/L and a DBIL (9 h) of 0.03 mg/dL. The GLC (9 h) was 189.4 mg/dL, the IP (9 h) was 10.8 mg/dL and the K (9 h) was 5.2 meq/L. It also gave an LDH (9 h) of 83.8 IU/L, a Na (9 h) of 139.4 meq/L and a PL (9 h) of 120.4 mg/dL. For the same compound, the RALB (9 h) was 3.5 g/dL, the TBIL (9 h) was 0.4 mg/dL and the TC (9 h) was 69.4 mg/dL. It also gave a TG (9 h) of 32.2 mg/dL, a TP (9 h) of 5.2 g/dL and a gamma-GTP (9 h) of 2.2 IU/L. For the same compound, the TERMINAL_BW (24 h) was 230.9 g, the APTT (24 h) was 15.8 s and the Bas (24 h) was 0%. For the same compound, the Eos (24 h) was 1.8%, the Fbg (24 h) was 222.8 mg/dL and the Hb (24 h) was 13 g/dL. The Ht (24 h) was 39.2%, the Lym (24 h) was 71.2% and the MCH (24 h) was 21.4 pg. For the same compound, the MCHC (24 h) was 33.1%, the MCV (24 h) was 64.8 fL and the Mono (24 h) was 8.8%. For the same compound, the Neu (24 h) was 18%, the PT (24 h) was 10.8 s and the Plat (24 h) was 115.7 x10_4/uL. The RBC (24 h) was 606 x10_4/ul, the Ret (24 h) was 8.6% and the WBC (24 h) was 90.5 x10_2/uL. The KIDNEY_L (24 h) was 1.1 g, the KIDNEY_R (24 h) was 1 g and the KIDNEY_TOTAL (24 h) was 2.1 g. For the same compound, the LIVER (24 h) was 11.5 g, the A/G (24 h) was 2 and the ALP (24 h) was 915.2 IU/L. For the same compound, the ALT (24 h) was 38.6 IU/L, the AST (24 h) was 67.6 IU/L and the BUN (24 h) was 17.6 mg/dL. It also gave a CRE (24 h) of 0.5 mg/dL, a Ca (24 h) of 11 mg/dL and a Cl (24 h) of 103.2 meq/L. For the same compound, the DBIL (24 h) was 0 mg/dL, the GLC (24 h) was 198 mg/dL and the IP (24 h) was 8.4 mg/dL. It also gave a K (24 h) of 5 meq/L, an LDH (24 h) of 106.4 IU/L and a Na (24 h) of 137.8 meq/L. It also gave a PL (24 h) of 167.4 mg/dL, an RALB (24 h) of 3.8 g/dL and a TBIL (24 h) of 0.5 mg/dL. The TC (24 h) was 91 mg/dL, the TG (24 h) was 89 mg/dL and the TP (24 h) was 5.7 g/dL. The gamma-GTP (24 h) was 1.8 IU/L.
